Assay results published in ChEMBL document CHEMBL1154489, “Isolation, structure and antibacterial activity of pleosporone from a pleosporalean ascomycete discovered by using antisense strategy” (Bioorg Med Chem, 2009).
≈ marks a conversion by molar mass, not a printed value. Calls of active or inactive are those of the source. The rule behind the calls is not given here.

What was measured:
Streptococcus pneumoniae [1] = experiment: Antimicrobial activity against drug-sensitive Streptococcus pneumoniae CL2883 in isosensitet medium at 2 ug/mL after 20 hrs by twofold serial dilution method; type: functional
Staphylococcus aureus [2] = experiment: Antibacterial activity against wild-type Staphylococcus aureus RN450 at 1000 ug/mL after 18 hrs by rpsD sensitized two-plate differential sensitivity assay; type: functional; conditions: RN450, 18 h, read-out: IZ
Staphylococcus aureus [3] = experiment: Inhibition of RNA synthesis in Staphylococcus aureus assessed as [3H]uracil incorporation by scintillation counting; type: functional, organism-based
Staphylococcus aureus [4] = experiment: Antimicrobial activity against methicillin-sensitive Staphylococcus aureus MB2865 after 20 hrs by twofold serial dilution method in presence of 50% human serum; type: functional
Streptococcus pneumoniae [5] = experiment: Antimicrobial activity against drug-sensitive Streptococcus pneumoniae CL2883 in CAMHB medium containing 2.5% horse blood after 20 hrs by twofold serial dilution method; type: functional
Staphylococcus aureus [6] = experiment: Antimicrobial activity against methicillin-sensitive Staphylococcus aureus ATCC 29213 at 16 ug/mL after 20 hrs by twofold serial dilution method; type: functional
Haemophilus influenzae = experiment: Antimicrobial activity against drug-sensitive Haemophilus influenzae MB4572 after 20 hrs by twofold serial dilution method; type: functional
Staphylococcus aureus [7] = experiment: Antibacterial activity against Staphylococcus aureus RN450 bearing RPSD antisense S1-782B plasmid after 18 hrs by rpsD sensitized two-plate differential sensitivity assay; type: functional, organism-based
Escherichia coli [8] = experiment: Antimicrobial activity against wild-type Escherichia coli MB2884 after 20 hrs by twofold serial dilution method; type: functional
Staphylococcus aureus [9] = experiment: Antibacterial activity against Staphylococcus aureus RN450 bearing RPSD antisense S1-782B plasmid assessed as minimum detection concentration after 18 hrs by rpsD sensitized two-plate differential sensitivity assay; type: functional
HeLa = experiment: Cytotoxicity against human HeLa cells; type: functional, cell-based
Staphylococcus aureus [10] = experiment: Antibacterial activity against Staphylococcus aureus RN450 bearing RPSD antisense S1-782B plasmid assessed as faint zone of clearance at 31.25 ug/mL after 18 hrs by rpsD sensitized two-plate differential sensitivity assay; type: functional; conditions: RN450, 18 h, read-out: IZ
Staphylococcus aureus [11] = experiment: Inhibition of protein synthesis in Staphylococcus aureus assessed as [3H]leucine incorporation by scintillation counting; type: functional, organism-based
Staphylococcus aureus [12] = experiment: Antimicrobial activity against methicillin-sensitive Staphylococcus aureus ATCC 29213 after 20 hrs by twofold serial dilution method; type: functional; conditions: ATCC 29213, 20 h
Staphylococcus aureus [13] = experiment: Inhibition of DNA synthesis in Staphylococcus aureus assessed as [3H]thymidine incorporation by scintillation counting; type: functional, organism-based
Staphylococcus aureus [14] = experiment: Antibacterial activity against Staphylococcus aureus RN450 bearing RPSD antisense S1-782B plasmid at 1000 ug/mL after 18 hrs by rpsD sensitized two-plate differential sensitivity assay; type: functional; conditions: RN450, 18 h, read-out: IZ
Staphylococcus aureus [15] = experiment: Antibacterial activity against wild-type Staphylococcus aureus RN450 assessed as faint zone of clearance at 31.25 ug/mL after 18 hrs by rpsD sensitized two-plate differential sensitivity assay; type: functional, organism-based
Staphylococcus aureus [16] = experiment: Antimicrobial activity against methicillin-sensitive Staphylococcus aureus MB2865 at 4 ug/mL after 20 hrs by twofold serial dilution method; type: functional
Staphylococcus aureus [17] = experiment: Antimicrobial activity against methicillin-sensitive Staphylococcus aureus MB2865 after 20 hrs by twofold serial dilution method; type: functional
Enterococcus faecalis = experiment: Antimicrobial activity against vancomycin-sensitive macrolide-resistant Enterococcus faecalis CL8516 after 20 hrs by twofold serial dilution method; type: functional
Staphylococcus aureus [18] = experiment: Ratio of IC50 for RNA synthesis to IC50 for protein synthesis in Staphylococcus aureus; type: functional
Staphylococcus aureus [19] = experiment: Ratio of IC50 for RNA synthesis to IC50 for DNA synthesis in Staphylococcus aureus; type: functional
Candida albicans = experiment: Antimicrobial activity against wild-type Candida albicans MY1055 after 20 hrs by twofold serial dilution method; type: functional; conditions: MY1055, 20 h
Bacillus subtilis = experiment: Antimicrobial activity against wild-type Bacillus subtilis MB964 after 20 hrs by twofold serial dilution method; type: functional
Streptococcus pneumoniae [20] = experiment: Antimicrobial activity against drug-sensitive Streptococcus pneumoniae CL2883 in isosensitet medium after 20 hrs by twofold serial dilution method; type: functional
Escherichia coli [21] = experiment: Antimicrobial activity against Escherichia coli MB5746 envA1, tolC mutant after 20 hrs by twofold serial dilution method; type: functional

Cc1cc(O)c2c(c1)C(=O)C1=C(C2=O)[C@@H](O)[C@@H](O)[C@@H](O)C1 [PLEOSPORONE]
Activity (Streptococcus pneumoniae [1]): 80% | zone of inhibition at 1000 µg/mL (Staphylococcus aureus [2]): 19.2 mm | IC50 (Staphylococcus aureus [3]): 1.3 µg/mL (≈ 4.48 µM) | MIC (Staphylococcus aureus [4]): > 64 µg/mL | MIC (Streptococcus pneumoniae [5]): 4 µg/mL (≈ 13.8 µM) | Activity (Staphylococcus aureus [6]): 80% | MIC (Haemophilus influenzae): 1 µg/mL (≈ 3.45 µM) | Activity (Staphylococcus aureus [7]): Dose-dependent effect | MIC (Escherichia coli [8]): > 64 µg/mL | Activity (Staphylococcus aureus [9]): 31.25 µg/mL | IC50 (HeLa): 0.23 µg/mL (≈ 0.792 µM) | zone of inhibition at 31.25 µg/mL (Staphylococcus aureus [10]): 9 mm | IC50 (Staphylococcus aureus [11]): 15.4 µg/mL (≈ 53.1 µM) | MIC (Staphylococcus aureus [12]): > 64 µg/mL | MIC80 (Staphylococcus aureus [12]): 4 µg/mL (≈ 13.8 µM) | IC50 (Staphylococcus aureus [13]): 8.4 µg/mL (≈ 28.9 µM) | zone of inhibition at 1000 µg/mL (Staphylococcus aureus [14]): 21.8 mm | Activity (Staphylococcus aureus [15]): inactive | Activity (Staphylococcus aureus [16]): 80% | MIC (Staphylococcus aureus [17]): 64 µg/mL (≈ 220 µM) | MIC (Enterococcus faecalis): 64 µg/mL (≈ 220 µM) | Ratio IC50 (Staphylococcus aureus [18]): 6 | Ratio IC50 (Staphylococcus aureus [19]): 6 | MIC (Candida albicans): > 64 µg/mL | MIC (Bacillus subtilis): 8 µg/mL (≈ 27.6 µM) | MIC (Streptococcus pneumoniae [20]): 4 µg/mL (≈ 13.8 µM) | MIC (Escherichia coli [21]): 16 µg/mL (≈ 55.1 µM)
